The text below walks through data of the supplement of paper PMC10307832.

Common to all, as to experiment: relative viability (nuclei count vs DMSO), 5 days (fraction); higher = more cells survive
Compound in the assay “Zosuquidar + Luminespib”: O[C@@H](COc1cccc2ncccc12)CN1CCN([C@@H]2c3ccccc3[C@@H]3[C@H](c4ccccc42)C3(F)F)CC1 [Zosuquidar] + CCNC(=O)c1noc(-c2cc(C(C)C)c(O)cc2O)c1-c1ccc(CN2CCOCC2)cc1 [Luminespib] (partner 0.01 µM)
In short, it runs like this: (§1)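 Lung cancer cell lines in 1536-well plates were dosed by pin tool the day after seeding, either with one drug alone or with a fixed anchor-drug dose plus five library-drug doses (not always all listed) in √10 steps. After 5 days, cells were fixed and their nuclei stained in one step (final 0.05% Triton X-100, 1% formaldehyde, 1 ug/ml Hoechst), then counted on 4× images. Relative viability is the nuclei count in treated wells divided by that in vehicle wells. Values are medians of duplicate plates.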

Compound in the assay “Zosuquidar + Foretinib”: O[C@@H](COc1cccc2ncccc12)CN1CCN([C@@H]2c3ccccc3[C@@H]3[C@H](c4ccccc42)C3(F)F)CC1 [Zosuquidar] + COc1cc2c(Oc3ccc(NC(=O)C4(C(=O)Nc5ccc(F)cc5)CC4)cc3F)ccnc2cc1OCCCN1CCOCC1 [Foretinib] (partner 0.25 µM)
In short, it runs like this:
as §1

Compound in the assay “Kobe2602 + OSI-027”: C1=CC(=CC=C1NC(=S)NNC2=C(C=C(C=C2[N+](=O)[O-])C(F)(F)F)[N+](=O)[O-])F [Kobe2602] + COc1cccc2cc(-c3nc([C@H]4CC[C@H](C(=O)O)CC4)n4ncnc(N)c34)[nH]c12 [OSI-027] (partner 0.5 µM)
In short, it runs like this:
as §1

Compound in the assay “Cabozantinib + Lapatinib”: COc1cc2nccc(Oc3ccc(NC(=O)C4(C(=O)Nc5ccc(F)cc5)CC4)cc3)c2cc1OC [Cabozantinib] + CS(=O)(=O)CCNCc1ccc(-c2ccc3ncnc(Nc4ccc(OCc5cccc(F)c5)c(Cl)c4)c3c2)o1 [Lapatinib] (partner 2 µM)
A digest of the protocol:
as §1

Turning to UMC-11, the relative viability was determined as 0.97 in the assay with Zosuquidar + Luminespib (first compound 0.01 µM); 0.943 with Zosuquidar + Luminespib (first compound 0.03162 µM); 1.08 with Zosuquidar + Luminespib (first compound 0.1 µM); 1.1 in the assay with Zosuquidar + Luminespib (first compound 0.3162 µM); 1.18 with Zosuquidar + Luminespib (first compound 1 µM); 1.07 in the assay with Zosuquidar + Foretinib (first compound 0.01 µM). Further, the relative viability was determined as 1.01 in the assay with Zosuquidar + Foretinib (first compound 0.03162 µM); 1.19 with Zosuquidar + Foretinib (first compound 0.1 µM); 1.12 with Zosuquidar + Foretinib (first compound 0.3162 µM); 0.987 with Zosuquidar + Foretinib (first compound 1 µM); 0.461 with Kobe2602 + OSI-027 (first compound 0.2 µM); 0.537 with Kobe2602 + OSI-027 (first compound 0.6325 µM). Also, the relative viability with Kobe2602 + OSI-027 (first compound 2 µM) is 0.539; with Kobe2602 + OSI-027 (first compound 6.325 µM) it was 0.459; with Kobe2602 + OSI-027 (first compound 20 µM) it was 0.467; in the assay with Cabozantinib + Lapatinib (first compound 0.02 µM), 1.05; with Cabozantinib + Lapatinib (first compound 0.06325 µM) it was 1.41; with Cabozantinib + Lapatinib (first compound 0.2 µM), 0.86. For the same cell line, the relative viability was 1.07 in the assay with Cabozantinib + Lapatinib (first compound 0.6325 µM) and 0.91 in the assay with Cabozantinib + Lapatinib (first compound 2 µM).
